According to US7351732B2, “Cycloalkanedione derivatives, method for the production thereof and their pharmacological applications” (Schwarz Pharma S.L., priority 2002, dated 2008):
Counter-ions that a name gives are not always drawn. Like-named read-outs stand apart in the source and are kept apart here.

Experiments:
[1] = target: T1, 5-HT1A (Rattus norvegicus, UniProt P19327); test: Radioligand displacement, 5-HT1A receptors, [3H]-8-OH-DPAT; assay type: binding; parameters: (a) 5-HT1A receptors, [^3H]-8-OH-DPAT, rat cerebral cortex; from tissue; host or cells: rat cerebral cortex; settings: rat cerebral cortex, read-out: Ki ± E.E. 5-HT1A
T1 sequence (P19327 1-422): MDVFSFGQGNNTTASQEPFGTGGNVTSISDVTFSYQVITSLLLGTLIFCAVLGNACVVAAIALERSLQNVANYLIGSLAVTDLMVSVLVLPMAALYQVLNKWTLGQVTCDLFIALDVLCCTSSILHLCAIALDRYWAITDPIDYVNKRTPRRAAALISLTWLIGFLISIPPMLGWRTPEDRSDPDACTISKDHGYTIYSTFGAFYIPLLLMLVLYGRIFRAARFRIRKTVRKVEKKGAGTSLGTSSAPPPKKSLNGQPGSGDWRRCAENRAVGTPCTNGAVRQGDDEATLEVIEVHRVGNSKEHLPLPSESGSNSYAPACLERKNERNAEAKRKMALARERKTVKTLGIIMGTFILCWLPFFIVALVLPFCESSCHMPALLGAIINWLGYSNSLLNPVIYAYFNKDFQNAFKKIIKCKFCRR

[2] = target: T2, 5-HT2A receptors (Rattus norvegicus, UniProt P14842); test: Radioligand displacement, 5-HT2A receptors, [3H]ketanserin; assay type: binding; settings: rat cerebral cortex, read-out: Ki ± E.E. 5-HT2A
T2 construct: (b) 5-HT2A receptors, [^3H]ketanserin, rat cerebral cortex; from tissue; host or cells: rat cerebral cortex

[3] = target: T3, 5-HT7 receptors (Rattus norvegicus, UniProt P32305); test: Radioligand displacement, 5-HT7 receptors, [3H]-5-CT; assay type: binding; settings: read-out: Ki ± E.E. 5-HT7
T3 construct: (e) 5-HT7 receptors, [^3H]-5-CT, rat hypothalamus; from tissue; host or cells: rat hypothalamus

[4] = target: T4, D2 receptors (Rattus norvegicus, UniProt P61169); test: Radioligand displacement, D2 receptors, [3H]spiperone; assay type: binding; settings: rat striatum, read-out: Ki ± E.E. D2
T4 construct: (g) D2 receptors, [^3H]spiperone, rat striatum; from tissue; host or cells: rat striatum

[5] = target: α1 receptors; test: Radioligand displacement, α1 receptors, [3H]prazosin; assay type: binding; settings: rat cerebral cortex, read-out: Ki ± E.E. α1
[6] = target: T5, 5-HT4 receptors (Rattus norvegicus, UniProt Q62758); test: Radioligand displacement, 5-HT4 receptors, [3H]GR 113808; assay type: binding; settings: [3H]GR 113808, rat striatum; read-out: Ki ± E.E. 5-HT4
T5 construct: (d) 5-HT4 receptors, [^3H]GR 113808, rat striatum; from tissue; host or cells: rat striatum

[7] = target: T6, 5-HT3 receptors (Rattus norvegicus, UniProt P35563); test: Radioligand displacement, 5-HT3 receptors, [3H]LY 278584; assay type: binding; settings: [3H]LY 278584, rat cerebral cortex; read-out: Ki ± E.E. 5-HT3
T6 construct: (c) 5-HT3 receptors, [^3H]LY 278584, rat cerebral cortex; from tissue; host or cells: rat cerebral cortex
T6 sequence (P35563 24-483): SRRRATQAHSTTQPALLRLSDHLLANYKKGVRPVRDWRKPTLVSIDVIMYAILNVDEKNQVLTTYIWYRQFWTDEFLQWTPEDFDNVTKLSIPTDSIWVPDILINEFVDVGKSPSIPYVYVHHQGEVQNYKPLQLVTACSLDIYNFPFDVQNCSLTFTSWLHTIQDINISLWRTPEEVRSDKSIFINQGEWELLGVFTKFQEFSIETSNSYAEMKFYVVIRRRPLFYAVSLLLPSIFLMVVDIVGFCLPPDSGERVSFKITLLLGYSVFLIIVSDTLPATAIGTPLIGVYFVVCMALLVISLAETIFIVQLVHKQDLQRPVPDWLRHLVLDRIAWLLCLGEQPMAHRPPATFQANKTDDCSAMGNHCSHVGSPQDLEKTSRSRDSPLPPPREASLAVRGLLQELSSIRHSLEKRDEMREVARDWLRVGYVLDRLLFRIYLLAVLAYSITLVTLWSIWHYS

T5 sequence (Q62758 whole entry): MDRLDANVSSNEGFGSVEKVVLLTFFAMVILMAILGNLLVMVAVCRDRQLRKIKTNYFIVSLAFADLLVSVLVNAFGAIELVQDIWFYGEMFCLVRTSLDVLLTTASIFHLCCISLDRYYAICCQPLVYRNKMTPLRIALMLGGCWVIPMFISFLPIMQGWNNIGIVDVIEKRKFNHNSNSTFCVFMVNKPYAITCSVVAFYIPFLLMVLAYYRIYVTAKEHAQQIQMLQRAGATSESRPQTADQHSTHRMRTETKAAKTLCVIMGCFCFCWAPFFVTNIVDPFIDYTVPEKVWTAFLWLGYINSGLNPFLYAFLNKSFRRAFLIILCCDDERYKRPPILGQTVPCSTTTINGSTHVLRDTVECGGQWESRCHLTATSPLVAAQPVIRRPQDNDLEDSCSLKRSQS
T2 sequence (P14842 whole entry): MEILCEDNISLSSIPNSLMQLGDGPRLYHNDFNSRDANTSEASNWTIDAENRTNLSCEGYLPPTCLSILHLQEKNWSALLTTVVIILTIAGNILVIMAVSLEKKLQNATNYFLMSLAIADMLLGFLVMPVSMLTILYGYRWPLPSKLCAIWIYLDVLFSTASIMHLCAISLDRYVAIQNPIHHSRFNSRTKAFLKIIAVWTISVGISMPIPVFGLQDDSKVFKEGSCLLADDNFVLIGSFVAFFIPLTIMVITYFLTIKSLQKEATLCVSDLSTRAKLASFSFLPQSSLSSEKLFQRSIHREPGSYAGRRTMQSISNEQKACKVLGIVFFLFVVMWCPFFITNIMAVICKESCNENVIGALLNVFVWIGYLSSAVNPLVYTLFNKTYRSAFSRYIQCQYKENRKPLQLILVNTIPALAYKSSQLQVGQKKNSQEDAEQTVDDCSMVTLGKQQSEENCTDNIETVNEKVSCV
T3 sequence (P32305 whole entry): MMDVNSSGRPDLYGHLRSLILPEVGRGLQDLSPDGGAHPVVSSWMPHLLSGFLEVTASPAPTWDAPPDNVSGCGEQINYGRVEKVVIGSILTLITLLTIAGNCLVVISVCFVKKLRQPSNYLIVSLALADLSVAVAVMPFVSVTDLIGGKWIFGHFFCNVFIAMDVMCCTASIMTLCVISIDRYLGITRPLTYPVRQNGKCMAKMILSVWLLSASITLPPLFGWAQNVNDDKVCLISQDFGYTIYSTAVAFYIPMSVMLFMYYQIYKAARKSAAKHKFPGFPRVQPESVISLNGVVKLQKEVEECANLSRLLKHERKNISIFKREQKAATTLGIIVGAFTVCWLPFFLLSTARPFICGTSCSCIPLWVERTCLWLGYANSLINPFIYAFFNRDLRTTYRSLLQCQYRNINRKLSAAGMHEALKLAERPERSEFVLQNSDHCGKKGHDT
T4 sequence (P61169 whole entry): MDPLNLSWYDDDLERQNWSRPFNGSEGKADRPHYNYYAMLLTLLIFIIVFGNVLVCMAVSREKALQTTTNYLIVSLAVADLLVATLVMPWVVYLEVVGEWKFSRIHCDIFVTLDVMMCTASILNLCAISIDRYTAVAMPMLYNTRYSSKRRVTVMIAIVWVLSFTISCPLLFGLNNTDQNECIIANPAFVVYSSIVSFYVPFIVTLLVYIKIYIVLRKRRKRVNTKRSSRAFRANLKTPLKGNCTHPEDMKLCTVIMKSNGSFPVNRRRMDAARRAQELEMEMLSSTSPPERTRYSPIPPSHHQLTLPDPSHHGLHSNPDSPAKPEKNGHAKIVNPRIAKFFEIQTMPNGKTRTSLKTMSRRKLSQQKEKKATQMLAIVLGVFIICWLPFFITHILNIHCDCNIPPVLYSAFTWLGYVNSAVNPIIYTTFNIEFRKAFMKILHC

Row | Compound | melting point [°C] | Ki [1] [nM] | Ki [5] [nM] | further results
1 | O=C1C2CCCN2C(=O)N1CCCCNCc1cccc2ccccc12 (stereo not shown) (as salt: hydrochloride) [Compound 7, 2-[4-[(Naphth-1-yl)methylamine]butyl]-1,3-dioxoperhydropyrrolo[1,2-c]imidazol] | 150 to 153 |  |  | 
2 | O=C1C2CCCN2C(=O)N1CCCCNCc1ccc2ccccc2c1 (stereo not shown) (as salt: hydrochloride) [Compound 8, 2-[4-[(Naphth-2-yl)methylamine]butyl]-1,3-dioxoperhydropyrrolo[1,2-c]imidazol] | 125 to 127 |  |  | 
3 | O=C1C2CCCN2C(=O)N1CCCCNCCc1cccc2ccccc12 (stereo not shown) (as salt: hydrochloride) [Compound 9, 2-[4-[2-(Naphth-1-yl)ethylamine]butyl]-1,3-dioxoperhydropyrrolo[1,2-c]imidazol] | 95 to 97 |  |  | 
4 | O=C1CSC(=O)N1CCCCNCCc1cccc2ccccc12 (as salt: hydrochloride) [Compound 10, 3-[4-[2-(Naphth-1-yl)ethylamine]butyl]-2,4-dioxothiazolidin] | 128 to 129 |  |  | 
5 | O=C1C2CCCN2C(=O)N1CCCCNCCc1ccc2ccccc2c1 (stereo not shown) (as salt: hydrochloride) [Compound 11, 2-[4-[2-(Naphth-2-yl)ethylamine]butyl]-1,3-dioxoperhydropyrrolo[1,2-c]imidazol] | 130 to 132 |  |  | 
6 | O=C1CSC(=O)N1CCCCNCCOc1ccccc1 (as salt: hydrochloride) [Compound 13, 3-[4-[2-(Phenoxy)ethylamine]butyl]-2,4-dioxothiazolidin] | 173 to 174 |  |  | 
7 | O=C1C2CCCN2C(=O)N1CCCCNCCOc1cccc2ccccc12 (stereo not shown) (as salt: hydrochloride) [Compound 14, 2-[4-[2-(Naphth-1-oxi)ethylamine]butyl]-1,3-dioxoperhydropyrrolo[1,2-c]imidazol] | 163 to 164 |  |  | 
8 | O=C1CSC(=O)N1CCCCNCCOc1cccc2ccccc12 (as salt: hydrochloride) [Compound 15, 3-[4-[2-(Naphth-1-oxi)ethylamine]butyl]-2,4-dioxothiazolidin] | 149 to 151 |  |  | 
9 | O=C1C2CCCN2C(=O)N1CCCCNCc1nc2ccccc2[nH]1 (stereo not shown) (as salt: hydrochloride) [Compound 16, 2-[4-[(Benzimidazol-2-yl)methylamine]butyl]-1,3-dioxoperhydropyrrolo[1,2-c]imidazol] | 208 to 210 |  |  | 
10 | COc1ccccc1CCNCCCCN1C(=O)C2CCCN2C1=O (stereo not shown) (as salt: hydrochloride) [Compound 18, 2-[4-[2-(o-Methoxyphenyl)ethylamine]butyl]-1,3-dioxoperhydropyrrolo[1,2-c]imidazol] | 160 to 162 |  |  | 
11 | O=C1C2SCCN2C(=O)N1CCCCNCC1CCc2ccccc2O1 (racemic) (as salt: hydrochloride) [Compound 2, (±)-2-[4-[(Chroman-2-yl)methylamine]butyl]-1,3-dioxoperhydroimidazo[1,5-b]thiazol] | 149 to 151 |  |  | 
12 | O=C1C2CSCN2C(=O)N1CCCCNCC1CCc2ccccc2O1 (racemic) (as salt: hydrochloride) [Compound 3, (±)-2-[4-[(Chroman-2-yl)methylamine]butyl]-1,3-dioxoperhydroimidazo[1,5-c]-thiazol] | 142 to 144 |  |  | 
13 | O=C1CSC(=O)N1CCCCCCNCC1CCc2ccccc2O1 (racemic) (as salt: hydrochloride) [Compound 6, (±)-3-[6-[(Chroman-2-yl)methylamine]hexyl]-2,4-dioxothiazolidin] | 175 to 177 |  |  | 
14 | O=C1CSC(=O)N1CCCCCNCC1CCc2ccccc2O1 (racemic) [Compound 5, (±)-3-[5-[(Chroman-2-yl)methylamine]pentyl]-2,4-dioxothiazolidin] |  | 5.5 ± 0.4 |  | 
15 | O=C1CSC(=O)N1CCCCCCNCC1CCc2ccccc2O1 (racemic) [Compound 6, (±)-3-[6-[(Chroman-2-yl)methylamine]hexyl]-2,4-dioxothiazolidin] |  | 1.3 ± 0.2 |  | 
16 | CN(C)CCCSc1ccccc1NC(=O)/C=C/c1ccccc1 [Cinanserine, reference compound] |  |  |  | Ki [2]: 2.6 ± 0.4 nM
17 | NCCc1c[nH]c2ccc(C(N)=O)cc12 [Compound 5-CT, 5-CT, reference compound] |  |  |  | Ki ([3]; [3H]-5-CT, rat hypothalamus): 1.8 ± 0.6 nM
18 | O=C1C2CCCN2C(=O)N1CCCCNCc1cccc2ccccc12 (stereo not shown) [Compound 7, 2-[4-[(Naphth-1-yl)methylamine]butyl]-1,3-dioxoperhydropyrrolo[1,2-c]imidazol] |  |  | 49.6 ± 2.9 | Ki [2]: > 1000 nM; Ki [4]: > 10000 nM; Ki [6]: > 10000 nM; Ki ([3]; [3H]-5-CT, rat hypothalamus): > 10000 nM
19 | O=C1C2CCCN2C(=O)N1CCCCNCc1ccc2ccccc2c1 (stereo not shown) [Compound 8, 2-[4-[(Naphth-2-yl)methylamine]butyl]-1,3-dioxoperhydropyrrolo[1,2-c]imidazol] |  | 51.01 ± 0.47 |  | 
20 | CCCN(CCC)C1CCc2cccc(O)c2C1 (stereo not shown) [Compound 8-OH-DPAT, 8-OH-DPAT, reference compound] |  |  |  | Ki [3]: 83.8 nM
21 | O=C1C2CCCN2C(=O)N1CCCCNCCc1cccc2ccccc12 (stereo not shown) [Compound 9, 2-[4-[2-(Naphth-1-yl)ethylamine]butyl]-1,3-dioxoperhydropyrrolo[1,2-c]imidazol] |  | 27.9 ± 3.1 | > 1000 | Ki [2]: > 10000 nM; Ki [4]: > 10000 nM; Ki [6]: > 10000 nM
22 | O=C1CSC(=O)N1CCCCNCCc1cccc2ccccc12 [Compound 10, 3-[4-[2-(Naphth-1-yl)ethylamine]butyl]-2,4-dioxothiazolidin] |  | 15 ± 1 | > 1000 | Ki [2]: > 1000 nM; Ki [4]: > 10000 nM; Ki [7]: > 1000 nM; Ki [6]: > 1000 nM; Ki ([3]; [3H]-5-CT, rat hypothalamus): > 10000 nM
23 | O=C1C2CCCN2C(=O)N1CCCCNCCc1ccc2ccccc2c1 (stereo not shown) [Compound 11, 2-[4-[2-(Naphth-2-yl)ethylamine]butyl]-1,3-dioxoperhydropyrrolo[1,2-c]imidazol] |  | 43.2 ± 4.5 | 99 ± 14 | Ki [2]: 157.3 ± 0.65 nM; Ki [7]: > 10000 nM; Ki [6]: 594 ± 43.7 nM; Ki ([3]; [3H]-5-CT, rat hypothalamus): 74 ± 7.3 nM
24 | O=C1CSC(=O)N1CCCCNCCOc1ccccc1 [Compound 13, 3-[4-[2-(Phenoxy)ethylamine]butyl]-2,4-dioxothiazolidin] |  | 9.8 ± 0.7 | 26.9 ± 4.5 | Ki [2]: > 10000 nM; Ki [4]: > 10000 nM; Ki [7]: > 10000 nM; Ki [6]: > 1000 nM; Ki ([3]; [3H]-5-CT, rat hypothalamus): 55 ± 0.3 nM
25 | O=C1CSC(=O)N1CCCCNCCOc1cccc2ccccc12 [Compound 15, 3-[4-[2-(Naphth-1-oxi)ethylamine]butyl]-2,4-dioxothiazolidin] |  | 4.5 ± 0.2 | 54.7 ± 1.8 | Ki [2]: 38.5 ± 7.7 nM; Ki [4]: > 1000 nM; Ki [7]: > 10000 nM; Ki ([3]; [3H]-5-CT, rat hypothalamus): 19.9 ± 0.8 nM
26 | COc1ccccc1CNCCCCN1C(=O)C2CCCN2C1=O (stereo not shown) [Compound 17, 2-[4-[(o-Methoxyphenyl)methylamine]butyl]-1,3-dioxoperhydropyrrolo[1,2-c]imidazol] |  | > 10000 | > 10000 | 
27 | COc1ccccc1CCNCCCCN1C(=O)C2CCCN2C1=O (stereo not shown) [Compound 18, 2-[4-[2-(o-Methoxyphenyl)ethylamine]butyl]-1,3-dioxoperhydropyrrolo[1,2-c]imidazol] |  | 868 ± 23.1 | > 1000 | Ki [2]: > 10000 nM; Ki [4]: > 10000 nM; Ki [6]: > 10000 nM
28 | Cc1ccc(N(CC2=NCCN2)c2cccc(O)c2)cc1 [Phentolamine, reference compound] |  |  | 6.1 ± 0.1 | 
29 | COc1cc(COc2cc(N)c(Cl)cc2C(=O)CCC2CCN(CCNS(C)(=O)=O)CC2)cc(OC)c1 [RS-39604, reference compound] |  |  |  | Ki [6]: 3.9 ± 0.2 nM
